“And” between values parts separate entries of the source, which are not always exact repeats. Equal values may be shown once. After the bases stand the sugars from the 5' end (letter, count) and the backbone: PS all phosphorothioate, else s phosphorothioate and o phosphodiester by linkage. Methylation of C is not given here. e = 2'-O-(2-methoxyethyl) (MOE); k = constrained ethyl (cEt); d = 2'-deoxy (DNA)

Data set [1] addresses IRF5. Particulars: ASO.
Data set [2] addresses DGAT2. Particulars: ASO.

“ACTGACACAGGCGGAT (sugars k2 d8 e4 k2, PS)”: the target mRNA inhibition in data set [1] (KARPAS-229, 4 µM) was 0%. In turn, “GTGAGTCTCAAACCAG (sugars kkkddddddddkekek, PS)” returned a target mRNA inhibition in data set [1] (KARPAS-229, 4 µM) of 0%.

In turn, “CCACTGTGTACCCCAT (sugars k3 d9 k3 e1, PS)” registered a target mRNA inhibition in data set [1] (KARPAS-229, 4 µM) of 57%. Still for that read-out and setting: then “GATGGTGTTATCTCCG (sugars kkdddddddddkekek, PS)”, with 0%; and “GCTGTCACATCTCCAC (sugars kddddddddddkekek, PS)”, with 17%; and “GGAAGTGAGTCTCAAA (sugars kkddddddddkekekk, PS)”, with 36%.

Sequence “ACCATTCTATGCCTTT (sugars kdddddddddkekeke, PS)” yielded a target mRNA inhibition in data set [1] (KARPAS-229, 4 µM) of 10%.

Turning to AGGGTGAGTAGGACGA (sugars k3 d10 k3, PS), the target mRNA inhibition in data set [1] (KARPAS-229, 4 µM) was 19%.

In data set [1] (KARPAS-229, 4 µM), “CGGTCTTTGAGGTCTG (sugars kdddddddddkekeke, PS)” had a target mRNA inhibition of 40%.

For the sequence TGTGACTGTATTACCT (sugars k3 d10 k3, PS), the target mRNA inhibition is 38% in data set [1] (KARPAS-229, 0.44444 µM); 44% in data set [1] (KARPAS-229, 1.33333 µM); 81% and 66% in data set [1] (KARPAS-229, 4 µM); 78% in data set [1] (KARPAS-229, 12 µM). The sequence TGTTGAATTTTGTGAC (sugars k3 d10 k3, PS) gave a target mRNA inhibition in data set [1] (KARPAS-229, 4 µM) of 26%. Still for that read-out and setting: then “CCCAATGCAACATCCA (sugars kdddddddddkekeke, PS)”, with 0%; and “GGTGTATTTCCCTGTC (sugars kekdddddddddeekk, PS)”, with 5%; and “AGGAGTGAGACGAGCA (sugars kkkddddddddkekek, PS)”, with 24%. In data set [1] (KARPAS-229, 4 µM), “CACATCTCCACATCAG (sugars kkddddddddddkeke, PS)” returned a target mRNA inhibition of 23%. With “ACCATTCTATGCCTTT (sugars kddddddddddkekek, PS)”, the target mRNA inhibition in data set [1] (KARPAS-229, 4 µM) worked out at 0%. Regarding CAACATCCATCAATGA (sugars k3 d10 k3, PS), the target mRNA inhibition in data set [1] (KARPAS-229, 4 µM) is 0%. In turn, “CTGTCACATCTCCACA (sugars k2 d9 e3 k2, PS)” gave a target mRNA inhibition in data set [1] (KARPAS-229, 4 µM) of 10%.

Sequence TTCCAATTTTGCATTC (sugars k3 d10 k3, PS) gave a target mRNA inhibition in data set [1] (KARPAS-229, 4 µM) of 39%.

The sequence “TATCTCCGTCCTGGCT (sugars kkddddddddkekekk, PS)” showed a target mRNA inhibition in data set [1] (KARPAS-229, 4 µM) of 6%.

The sequence “CCTTCTGCAGGGAGTC (sugars kkkdddddddddkeke, PS)” returned a target mRNA inhibition in data set [1] (KARPAS-229, 4 µM) of 1%. In data set [1] (KARPAS-229, 4 µM), “GGAGTGAGACGAGCAA (sugars k3 d9 k3 e1, PS)” registered a target mRNA inhibition of 33%. On to CCTCATGAGTAATAGG (sugars k3 d10 k3, PS), for which the target mRNA inhibition in data set [1] (KARPAS-229, 4 µM) is 0%. Regarding “CATTCCATATACACAC (sugars kkkddddddddkekek, PS)”, the target mRNA inhibition in data set [1] (KARPAS-229, 4 µM) is 32%.

For “TGTCTAGTGTCATGGA (sugars kkddkddddddeeekk, PS)”, the target mRNA inhibition in data set [1] (A-431, 0.00412 µM) is 0%; in data set [1] (A-431, 0.01225 µM), 0%; in data set [1] (A-431, 0.03704 µM), 9%; in data set [1] (A-431, 0.11111 µM) it was 17%; in data set [1] (A-431, 0.33333 µM), 13%; in data set [1] (A-431, 1 µM) it was 29%. “CACTGACACAGGCGGA (sugars kkddddddddddkeke, PS)” had a target mRNA inhibition in data set [1] (KARPAS-229, 4 µM) of 0%. Still for that read-out and setting: then “TGTCTAGTGTCATGGA (sugars kkkddddddddkekek, PS)”, with 57%; and “AAGGGCACAGCGCAGG (sugars kkkdddddddddkeke, PS)”, with 0%. In the case of “CGGTCTTTGAGGTCTG (sugars kkkdddddddddkeke, PS)”, the target mRNA inhibition in data set [1] (KARPAS-229, 4 µM) is 38%.

For “CTGACACAGGCGGATG (sugars kddddddddddkekek, PS)”, the target mRNA inhibition in data set [1] (KARPAS-229, 4 µM) amounted to 0%. In data set [1] (KARPAS-229, 4 µM), “GTCTGGCCCTTTTGGA (sugars kkddddddddkekekk, PS)” returned a target mRNA inhibition of 0%. Regarding “GTGAGTCTCAAACCAG (sugars kekdddddddddeekk, PS)”, the target mRNA inhibition in data set [1] (KARPAS-229, 4 µM) was found to be 22%. Same read-out and setting: then “CTGTCACATCTCCACA (sugars kkddddddddddkeke, PS)”, with 19%. On to “ACCACTGTGTACCCCA (sugars kkdddddddddkekek, PS)”, for which the target mRNA inhibition in data set [1] (KARPAS-229, 4 µM) was 17%. On the same count and under the same terms, then “ATGAGTCATGGGCTGA (sugars kekddddddddkeekk, PS)”, with 0%; and “AGGTTCTTGGACTCTC (sugars kkddddddddddkeke, PS)”, with 41%. Consider “GGTCTTTGAGGTCTGG (sugars kkddddddddddkeke, PS)”, for which the target mRNA inhibition in data set [1] (KARPAS-229, 0.44444 µM) was 39%; in data set [1] (KARPAS-229, 1.33333 µM) it was 43%; in data set [1] (KARPAS-229, 4 µM), 67% and 63%; in data set [1] (KARPAS-229, 12 µM), 72%. Sequence “GTCTGGCCCTTTTGGA (sugars k2 d9 e3 k2, PS)” yielded a target mRNA inhibition in data set [1] (KARPAS-229, 4 µM) of 0%.

Take “GATGGTGTTATCTCCG (sugars k2 d8 e4 k2, PS)”: the target mRNA inhibition in data set [1] (KARPAS-229, 4 µM) was determined as 0%.

In turn, “AGCTTGGTCTTGACCT (sugars kkdddddddddkekek, PS)” gave a target mRNA inhibition in data set [1] (KARPAS-229, 4 µM) of 8%. In data set [1] (KARPAS-229, 4 µM), CTTCTGCAGGGAGTCA (sugars k3 d10 k3, PS) showed a target mRNA inhibition of 0%. Still for that read-out and setting: then “CCACTGTGTACCCCAT (sugars kkddddddddddkeke, PS)”, with 19%; and “AGCTTGGTCTTGACCT (sugars kdddddddddkekeke, PS)”, with 14%.

Regarding “CCTTCTGCAGGGAGTC (sugars kkdddddddddkekek, PS)”, the target mRNA inhibition in data set [1] (KARPAS-229, 4 µM) came to 0%. The same measure, in the same setting: then “GGTCTTGACCTCCCGC (sugars kkkddddddddkdkdk, PS)”, with 4%; and “GGTCTGGCCCTTTTGG (sugars kekdddddddddeekk, PS)”, with 13%; and “ATGAGTCATGGGCTGA (sugars kkddddddddkekekk, PS)”, with 0%. Same read-out and setting: then “AGGAGTGAGACGAGCA (sugars k3 d9 k3 e1, PS)”, with 37%; and “CACATCTCCACATCAG (sugars kdddddddddkekeke, PS)”, with 2%. In data set [1] (KARPAS-229, 4 µM), CTTTCTTGTCTAGTGT (sugars k3 d10 k3, PS) returned a target mRNA inhibition of 48%. The same measure, in the same setting: then “GGTGTATTTCCCTGTC (sugars kkkddddddddkdkdk, PS)”, with 1%; and “CCACTGTGTACCCCAT (sugars kkdddddddddkdkdk, PS)”, with 54%; and TGCTCTAAACCATTCT (sugars k3 d10 k3, PS), with 0%.

Turning to “GGGTGTGTTCCAGTCAAACA (sugars e5 d10 e5, PS)”, the target mRNA inhibition in data set [2] (HepG2, 0.12 µM) is 6%. As to “GCACATCTCTTCCATCTCCA (sugars e5 d10 e5, PS)”, the target mRNA inhibition amounted to 74% in data set [2] (HepG2, 2.5 µM) and 92% in data set [2] (HepG2, 10 µM). Take “AGGACCCCGGAGTAGGCGGC (sugars e2 d13 e5, PS)”: the target mRNA inhibition in data set [2] (HepG2, 0.12 µM) came to 81%; in data set [2] (HepG2, 10 µM), 85%.

Sequence “GACTGCATTCTTGCCAGGCA (sugars e5 d10 e5, PS)” gave a target mRNA inhibition in data set [2] (HepG2, 0.12 µM) of 60%. “GTTTCGGACCCACTGTGACC (sugars e5 d10 e5, PS)” yielded a target mRNA inhibition in data set [2] (HepG2, 0.12 µM) of 65%.

For the sequence “CCAGGCCAAGGCTGAGTCTG (sugars e5 d10 e5, PS)”, the target mRNA inhibition in data set [2] (HepG2, 0.12 µM) came out at 27%. Turning to “ACAGCGATGAGCCAGCA (sugars e3 d10 e4, PS)”, the target mRNA inhibition in data set [2] (HepG2, 2.5 µM) was 45%; in data set [2] (HepG2, 10 µM), 88%. The corresponding values for “TGGATAGTCGATTTACCAGA (sugars e5 d10 e5, PS)” are 62% and 90%. Take “GGTTGCAATGTTGCCATCAT (sugars e5 d10 e5, PS)”: the target mRNA inhibition in data set [2] (HepG2, 2.5 µM) was 91% and 83%; in data set [2] (HepG2, 10 µM), 93% and 91%. Turning to “AGCTTGGTGAATAGCTATGT (sugars e5 d10 e5, PS)”, the target mRNA inhibition in data set [2] (HepG2, 2.5 µM) was 75% and 68%; in data set [2] (HepG2, 10 µM), 93% and 92%. Consider “AGGTTGTGTGTCTTCACCAG (sugars e5 d10 e5, PS)”, for which the target mRNA inhibition in data set [2] (HepG2, 0.12 µM) is 59% and 74%. In the case of “GCTGAGAGAGACAATGAGTA (sugars e5 d10 e5, PS)”, the target mRNA inhibition in data set [2] (HepG2, 0.12 µM) came to 54%.

“AGCCAGGTAAGGCCGTATGC (sugars e3 d14 e3, PS)” returned a target mRNA inhibition in data set [2] (HepG2, 0.12 µM) of 51%. “AGCGCAGAGCCCATCAGCCT (sugars e5 d10 e5, PS)”: the target mRNA inhibition in data set [2] (HepG2, 0.12 µM) is 48%. On to “GTTGTGTGTCTTCACCAGCT (sugars e5 d10 e5, PS)”, for which, in data set [2] (HepG2, 0.12 µM), the target mRNA inhibition is 54% and 68%. For the sequence “GCTTACCAACAGTGGTGATG (sugars e5 d10 e5, PS)”, the target mRNA inhibition in data set [2] (HepG2, 0.12 µM) was determined as 21%. “CTCTCCAACTCCTCCCCTTG (sugars e5 d10 e5, PS)” registered a target mRNA inhibition in data set [2] (HepG2, 0.12 µM) of 25%.

“ATATACAAAAGTCTGACATG (sugars e5 d10 e5, PS)”: the target mRNA inhibition in data set [2] (HepG2, 0.12 µM) was 21%.

“GTGTAGCCAGGTAAGGCCGT (sugars e5 d10 e5, PS)” yielded a target mRNA inhibition in data set [2] (HepG2, 0.12 µM) of 50%. In turn, “ACTGAGATGACCTGTAGCTG (sugars e5 d10 e5, PS)” registered a target mRNA inhibition in data set [2] (HepG2, 0.12 µM) of 33%. “CTGACATGGTAAGTCCTGAT (sugars e5 d10 e5, PS)”: the target mRNA inhibition is 76% and 52% in data set [2] (HepG2, 2.5 µM); 93% and 89% in data set [2] (HepG2, 10 µM).

In data set [2] (HepG2, 0.12 µM), “TGTCCTTATCAAAATCCCTC (sugars e5 d10 e5, PS)” registered a target mRNA inhibition of 38%. Take “GCTAAGGAAAACTTAGGCAT (sugars e5 d10 e5, PS)”: the target mRNA inhibition in data set [2] (HepG2, 2.5 µM) is 56%; in data set [2] (HepG2, 10 µM) it was 89% and 85%. On to “CATGGAGCTCAGAGACTCAG (sugars e3 d14 e3, PS)”, for which, in data set [2] (HepG2, 0.12 µM), the target mRNA inhibition turned out to be 62%. In turn, “GGTCAGCAGGTTGTGTGTCT (sugars e3 d14 e3, PS)” showed a target mRNA inhibition in data set [2] (HepG2, 0.12 µM) of 57%. Take “AGGCATGCTTCCTCCCA (sugars e3 d10 e4, PS)”: the target mRNA inhibition in data set [2] (HepG2, 2.5 µM) came to 73%; in data set [2] (HepG2, 10 µM) it was 49%.

In data set [2] (HepG2, 0.12 µM), “CCCCTCGCGCGACAGCGCAG (sugars e5 d10 e5, PS)” came in with a target mRNA inhibition of 25%.

These data come from the OligoGym collection.
